# Measurements published in PMC9688344, “[^225Ac]Ac-SibuDAB for Targeted Alpha Therapy of Prostate Cancer: Preclinical Evaluation and Comparison with [^225Ac]Ac-PSMA-617” (Cancers, 2022).
# Legend:
# [1] = test system: PC3-PIP/flu tumor-bearing mice; assay: Biodistribution studies; assay type: in vivo, BALB/c nude mice
# [2] = test system: PSMA-negative PC-3 flu tumors; assay: Therapy study in PC-3 flu tumor-bearing mice; assay type: in vivo, BALB/c nude mice; conditions: 30 kBq
# Description: Five days after subcutaneous inoculation of four groups of mice with either PC-3 PIP or PC-3 flu tumor cells on the right shoulder (4 × 10^6 cells in 100 μL HBSS), the mice were intravenously injected with either vehicle only (saline with 0.05% BSA, n = 6 and n = 4, respectively) or with 30 kBq [^225Ac]Ac-SibuDAB (1 nmol per mouse; n = 4 per group) diluted in vehicle (Table 1).
# After administration of the radioligands, the mice were monitored over 8 weeks using the same measures as previously published by Umbricht et al.. The relative body mass was defined as [BMx/BM0], where BMx is the body mass in grams at a given Day x and BM0 is the body mass in grams at Day 0. The tumor dimension was determined by measuring the longest tumor axis (L) and its perpendicular axis (W) with a digital caliper. The tumor volume (V) was calculated according to the equation [V = 0.5 × (LW^2)]. The relative tumor volume was defined as [TVx/TV0], where TVx is the tumor volume in mm^3 at a given Day x, and TV0 is the tumor volume in mm^3 at Day 0. Endpoint criteria that required euthanasia were defined as (i) body mass loss of >15%, (ii) a tumor volume of >800 mm^3, (iii) a combination of body mass loss of >10% and a tumor volume of >700 mm^3 or, (iv) signs of unease and pain or a combination thereof using a scoring system as previously reported. The median survival of mice of each group was assessed with Kaplan–Meier curves. Potential early side effects for mice that survived until study end were determined based on blood chemistry and organ-to-brain mass ratios on Day 56 by comparison to values obtained from an additional group of therapy-naïve mice (n = 4) without tumors but of the same age (Supplementary Material: Section S9).
structure (smiles),measurement,setting,value
O=C([O-])CN1CCN(CC(=O)[O-])CCN(CC(=O)NCC2CCC(C(=O)NC(Cc3ccc4ccccc4c3)C(=O)NCCCCC(NC(=O)NC(CCC(=O)O)C(=O)O)C(=O)O)CC2)CCN(CC(=O)[O-])CC1.[225Ac+3] (centres unmarked) [[^225Ac]Ac-PSMA-617],"Blood, accumulated activity",[1]; 1 h p.i.,0.62 ± 0.12 % IA/g
same,"Bone, accumulated activity",[1]; 1 h p.i.,0.46 ± 0.13 % IA/g
same,"Heart, accumulated activity",[1]; 1 h p.i.,0.35 ± 0.09 % IA/g
same,"Intestines, accumulated activity",[1]; 1 h p.i.,0.29 ± 0.12 % IA/g
same,"Kidneys, accumulated activity",[1]; 1 h p.i.,12 ± 3 % IA/g
same,"Liver, accumulated activity",[1]; 1 h p.i.,0.46 ± 0.10 % IA/g
same,"Lung, accumulated activity",[1]; 1 h p.i.,0.76 ± 0.23 % IA/g
same,"Muscle, accumulated activity",[1]; 1 h p.i.,0.18 ± 0.06 % IA/g
same,"PC-3 PIP tumor, accumulated activity",[1]; 1 h p.i.,46 ± 13 % IA/g
same,"PC-3 flu tumor, accumulated activity",[1]; 1 h p.i.,0.30 ± 0.06 % IA/g
same,"Salivary glands, accumulated activity",[1]; 1 h p.i.,0.30 ± 0.06 % IA/g
same,"Spleen, accumulated activity",[1]; 1 h p.i.,0.68 ± 0.09 % IA/g
same,"Stomach, accumulated activity",[1]; 1 h p.i.,0.37 ± 0.14 % IA/g
same,Tumor-to-blood ratio,[1]; 1 h p.i.,73 ± 7
same,Tumor-to-kidney ratio,[1]; 1 h p.i.,3.7 ± 0.3
same,Tumor-to-liver ratio,[1]; 1 h p.i.,99 ± 8
same,"Blood, accumulated activity",[1]; 4 h p.i.,≤ 0.10 % IA/g
same,"Bone, accumulated activity",[1]; 4 h p.i.,0.14 ± 0.04 % IA/g
same,"Heart, accumulated activity",[1]; 4 h p.i.,≤ 0.10 % IA/g
same,"Intestines, accumulated activity",[1]; 4 h p.i.,≤ 0.10 % IA/g
same,"Kidneys, accumulated activity",[1]; 4 h p.i.,3.5 ± 0.6 % IA/g
same,"Liver, accumulated activity",[1]; 4 h p.i.,0.31 ± 0.04 % IA/g
same,"Lung, accumulated activity",[1]; 4 h p.i.,≤ 0.10 % IA/g
same,"Muscle, accumulated activity",[1]; 4 h p.i.,≤ 0.10 % IA/g
same,"PC-3 PIP tumor, accumulated activity",[1]; 4 h p.i.,43 ± 10 % IA/g
same,"PC-3 flu tumor, accumulated activity",[1]; 4 h p.i.,0.11 ± 0.02 % IA/g
same,"Salivary glands, accumulated activity",[1]; 4 h p.i.,≤ 0.10 % IA/g
same,"Spleen, accumulated activity",[1]; 4 h p.i.,0.12 ± 0.05 % IA/g
same,"Stomach, accumulated activity",[1]; 4 h p.i.,≤ 0.10 % IA/g
same,Tumor-to-blood ratio,[1]; 4 h p.i.,2593 ± 825
same,Tumor-to-kidney ratio,[1]; 4 h p.i.,13 ± 4
same,Tumor-to-liver ratio,[1]; 4 h p.i.,142 ± 23
same,"Blood, accumulated activity",[1]; 24 h p.i.,≤ 0.10 % IA/g
same,"Bone, accumulated activity",[1]; 24 h p.i.,0.11 ± 0.01 % IA/g
same,"Heart, accumulated activity",[1]; 24 h p.i.,≤ 0.10 % IA/g
same,"Intestines, accumulated activity",[1]; 24 h p.i.,≤ 0.10 % IA/g
same,"Kidneys, accumulated activity",[1]; 24 h p.i.,1.2 ± 0.2 % IA/g
same,"Liver, accumulated activity",[1]; 24 h p.i.,0.39 ± 0.06 % IA/g
same,"Lung, accumulated activity",[1]; 24 h p.i.,≤ 0.10 % IA/g
same,"Muscle, accumulated activity",[1]; 24 h p.i.,≤ 0.10 % IA/g
same,"PC-3 PIP tumor, accumulated activity",[1]; 24 h p.i.,37 ± 9 % IA/g
same,"PC-3 flu tumor, accumulated activity",[1]; 24 h p.i.,0.11 ± 0.08 % IA/g
same,"Salivary glands, accumulated activity",[1]; 24 h p.i.,≤ 0.10 % IA/g
same,"Spleen, accumulated activity",[1]; 24 h p.i.,0.13 ± 0.04 % IA/g
same,"Stomach, accumulated activity",[1]; 24 h p.i.,≤ 0.10 % IA/g
same,Tumor-to-blood ratio,[1]; 24 h p.i.,4991 ± 3208
same,Tumor-to-kidney ratio,[1]; 24 h p.i.,33 ± 9
same,Tumor-to-liver ratio,[1]; 24 h p.i.,97 ± 20
same,"Blood, accumulated activity",[1]; 48 h p.i.,≤ 0.10 % IA/g
same,"Bone, accumulated activity",[1]; 48 h p.i.,0.12 ± 0.04 % IA/g
same,"Heart, accumulated activity",[1]; 48 h p.i.,≤ 0.10 % IA/g
same,"Intestines, accumulated activity",[1]; 48 h p.i.,≤ 0.10 % IA/g
same,"Kidneys, accumulated activity",[1]; 48 h p.i.,0.79 ± 0.13 % IA/g
same,"Liver, accumulated activity",[1]; 48 h p.i.,0.44 ± 0.16 % IA/g
same,"Lung, accumulated activity",[1]; 48 h p.i.,≤ 0.10 % IA/g
same,"Muscle, accumulated activity",[1]; 48 h p.i.,≤ 0.10 % IA/g
same,"PC-3 PIP tumor, accumulated activity",[1]; 48 h p.i.,31 ± 3 % IA/g
same,"PC-3 flu tumor, accumulated activity",[1]; 48 h p.i.,0.26 ± 0.4 % IA/g
same,"Salivary glands, accumulated activity",[1]; 48 h p.i.,≤ 0.10 % IA/g
same,"Spleen, accumulated activity",[1]; 48 h p.i.,0.13 ± 0.02 % IA/g
same,"Stomach, accumulated activity",[1]; 48 h p.i.,≤ 0.10 % IA/g
same,Tumor-to-blood ratio,[1]; 48 h p.i.,1716 ± 860
same,Tumor-to-kidney ratio,[1]; 48 h p.i.,37 ± 6
same,Tumor-to-liver ratio,[1]; 48 h p.i.,68 ± 15
CC(C)Cc1ccc(C(C)C(=O)NC(CCN)C(=O)NCCCCC(NC(=O)CN2CCN(CC(=O)[O-])CCN(CC(=O)[O-])CCN(CC(=O)[O-])CC2)C(=O)NCC2CCC(C(=O)NC(Cc3ccc4ccccc4c3)C(=O)NCCCCC(NC(=O)NC(CCC(=O)O)C(=O)O)C(=O)O)CC2)cc1.[225Ac+3] (centres unmarked) [[^225Ac]Ac-SibuDAB],"Blood, accumulated activity",[1]; 1 h p.i.,23 ± 2 % IA/g
same,"Bone, accumulated activity",[1]; 1 h p.i.,2.5 ± 0.2 % IA/g
same,"Heart, accumulated activity",[1]; 1 h p.i.,7.4 ± 0.9 % IA/g
same,"Intestines, accumulated activity",[1]; 1 h p.i.,2.6 ± 0.5 % IA/g
same,"Kidneys, accumulated activity",[1]; 1 h p.i.,18 ± 1 % IA/g
same,"Liver, accumulated activity",[1]; 1 h p.i.,4.4 ± 0.4 % IA/g
same,"Lung, accumulated activity",[1]; 1 h p.i.,19 ± 2 % IA/g
same,"Muscle, accumulated activity",[1]; 1 h p.i.,2.0 ± 0.4 % IA/g
same,"PC-3 PIP tumor, accumulated activity",[1]; 1 h p.i.,20 ± 2 % IA/g
same,"PC-3 flu tumor, accumulated activity",[1]; 1 h p.i.,4.2 ± 1.1 % IA/g
same,"Salivary glands, accumulated activity",[1]; 1 h p.i.,4.7 ± 0.4 % IA/g
same,"Spleen, accumulated activity",[1]; 1 h p.i.,3.5 ± 0.3 % IA/g
same,"Stomach, accumulated activity",[1]; 1 h p.i.,2.4 ± 0.4 % IA/g
same,Tumor-to-blood ratio,[1]; 1 h p.i.,0.9 ± 0.1
same,Tumor-to-kidney ratio,[1]; 1 h p.i.,1.2 ± 0.1
same,Tumor-to-liver ratio,[1]; 1 h p.i.,4.6 ± 0.5
same,"Blood, accumulated activity",[1]; 4 h p.i.,16 ± 2 % IA/g
same,"Bone, accumulated activity",[1]; 4 h p.i.,2.2 ± 0.5 % IA/g
same,"Heart, accumulated activity",[1]; 4 h p.i.,5.5 ± 0.7 % IA/g
same,"Intestines, accumulated activity",[1]; 4 h p.i.,2.2 ± 0.3 % IA/g
same,"Kidneys, accumulated activity",[1]; 4 h p.i.,19 ± 1 % IA/g
same,"Liver, accumulated activity",[1]; 4 h p.i.,4.0 ± 0.3 % IA/g
same,"Lung, accumulated activity",[1]; 4 h p.i.,10 ± 2 % IA/g
same,"Muscle, accumulated activity",[1]; 4 h p.i.,1.9 ± 0.2 % IA/g
same,"PC-3 PIP tumor, accumulated activity",[1]; 4 h p.i.,45 ± 5 % IA/g
same,"PC-3 flu tumor, accumulated activity",[1]; 4 h p.i.,4.1 ± 0.8 % IA/g
same,"Salivary glands, accumulated activity",[1]; 4 h p.i.,3.7 ± 0.2 % IA/g
same,"Spleen, accumulated activity",[1]; 4 h p.i.,3.0 ± 0.5 % IA/g
same,"Stomach, accumulated activity",[1]; 4 h p.i.,1.8 ± 0.3 % IA/g
same,Tumor-to-blood ratio,[1]; 4 h p.i.,2.9 ± 0.3
same,Tumor-to-kidney ratio,[1]; 4 h p.i.,2.3 ± 0.1
same,Tumor-to-liver ratio,[1]; 4 h p.i.,11 ± 1
same,"Blood, accumulated activity",[1]; 24 h p.i.,3.3 ± 0.7 % IA/g
same,"Bone, accumulated activity",[1]; 24 h p.i.,0.81 ± 0.10 % IA/g
same,"Heart, accumulated activity",[1]; 24 h p.i.,1.5 ± 0.4 % IA/g
same,"Intestines, accumulated activity",[1]; 24 h p.i.,0.85 ± 0.14 % IA/g
same,"Kidneys, accumulated activity",[1]; 24 h p.i.,18 ± 2 % IA/g
same,"Liver, accumulated activity",[1]; 24 h p.i.,3.3 ± 0.4 % IA/g
same,"Lung, accumulated activity",[1]; 24 h p.i.,2.9 ± 0.4 % IA/g
same,"Muscle, accumulated activity",[1]; 24 h p.i.,0.58 ± 0.06 % IA/g
same,"PC-3 PIP tumor, accumulated activity",[1]; 24 h p.i.,80 ± 8 % IA/g
same,"PC-3 flu tumor, accumulated activity",[1]; 24 h p.i.,2.4 ± 0.9 % IA/g
same,"Salivary glands, accumulated activity",[1]; 24 h p.i.,1.7 ± 0.2 % IA/g
same,"Spleen, accumulated activity",[1]; 24 h p.i.,2.3 ± 0.5 % IA/g
same,"Stomach, accumulated activity",[1]; 24 h p.i.,0.72 ± 0.14 % IA/g
same,Tumor-to-blood ratio,[1]; 24 h p.i.,25 ± 6
same,Tumor-to-kidney ratio,[1]; 24 h p.i.,4.7 ± 0.9
same,Tumor-to-liver ratio,[1]; 24 h p.i.,25 ± 5
same,"Blood, accumulated activity",[1]; 48 h p.i.,1.1 ± 0.2 % IA/g
same,"Bone, accumulated activity",[1]; 48 h p.i.,0.48 ± 0.09 % IA/g
same,"Heart, accumulated activity",[1]; 48 h p.i.,0.73 ± 0.17 % IA/g
same,"Intestines, accumulated activity",[1]; 48 h p.i.,0.40 ± 0.08 % IA/g
same,"Kidneys, accumulated activity",[1]; 48 h p.i.,8.6 ± 1.1 % IA/g
same,"Liver, accumulated activity",[1]; 48 h p.i.,2.7 ± 0.5 % IA/g
same,"Lung, accumulated activity",[1]; 48 h p.i.,1.3 ± 0.3 % IA/g
same,"Muscle, accumulated activity",[1]; 48 h p.i.,0.30 ± 0.11 % IA/g
same,"PC-3 PIP tumor, accumulated activity",[1]; 48 h p.i.,64 ± 11 % IA/g
same,"PC-3 flu tumor, accumulated activity",[1]; 48 h p.i.,1.5 ± 0.4 % IA/g
same,"Salivary glands, accumulated activity",[1]; 48 h p.i.,0.92 ± 0.19 % IA/g
same,"Spleen, accumulated activity",[1]; 48 h p.i.,1.9 ± 0.5 % IA/g
same,"Stomach, accumulated activity",[1]; 48 h p.i.,0.38 ± 0.04 % IA/g
same,Tumor-to-blood ratio,[1]; 48 h p.i.,62 ± 11
same,Tumor-to-kidney ratio,[1]; 48 h p.i.,7.4 ± 1.3
same,Tumor-to-liver ratio,[1]; 48 h p.i.,24 ± 4
same,"tumor uptake, higher than for [225Ac]Ac-PSMA-617","[1]; 48 h p.i., PC-3 PIP tumor",2 fold
same,Day of first endpoint,[2],18
same,Day of last endpoint,[2],27
same,Median Survival,[2],25 days
same,Number of Mice Alive on Day 56,[2],0/4
same,Tumor growth delay,[2],not significantly delay the growth
